Results from patent publication US7220756B2, “N-sulfonylheterocyclopyrrolyl-alkylamine compounds as 5-hydroxytryptamine-6 ligands” (Wyeth, priority 2003, dated 2007).
Read-outs that look alike come from different tables or passages of the source.

Target: T1, human cloned 5-HT6 receptors (Homo sapiens, UniProt P50406)
T1 construct: expressed in transfected cells; host or cells: HeLa cells
Assay: 5-HT6 binding affinity, [3H]-LSD displacement
Method: The affinity of test compounds for the serotonin 5-HT6 receptor is evaluated in the following manner. Cultured Hela cells expressing human cloned 5-HT6 receptors are harvested and centrifuged at low speed (1,000×g) for 10.0 min to remove the culture media. The harvested cells are suspended in half volume of fresh physiological phosphate buffered saline solution and recentrifuged at the same speed. This operation is repeated. The collected cells are then homogenized in ten volumes of 50 mM Tris.HCl (pH 7.4) and 0.5 mM EDTA. The homogenate is centrifuged at 40,000×g for 30.0 min and the precipitate is collected. The obtained pellet is resuspended in 10 volumes of Tris.HCl buffer and recentrifuged at the same speed. The final pellet is suspended in a small volume of Tris.HCl buffer and the tissue protein content is determined in aliquots of 10–25 μl volumes. Bovine Serum Albumin is used as the standard in the protein determination according to the method described in Lowry et al., J. Biol. Chem., 193:265 (1951). The volume of the suspended cell membranes is adjusted to give a tissue protein concentration of 1.0 mg/ml of suspension. The prepared membrane suspension (10 times concentrated) is aliquoted in 1.0 ml volumes and stored at −70° C. until used in subsequent binding experiments.
The reaction is allowed to proceed in the dark for 120 min at room temperature, at which time, the bound ligand-receptor complex is filtered off on a 96 well unifilter with a Packard Filtermate® 196 Harvester. The bound complex caught on the filter disk is allowed to air dry and the radioactivity is measured in a Packard TopCount® equipped with six photomultiplier detectors, after the addition of 40.0 μl Microscint®−20 scintillant to each shallow well. The unifilter plate is heat-sealed and counted in a PackardTopCount® with a tritium efficiency of 31.0%.
Binding in the presence of varying concentrations of test compound is expressed as a percentage of specific binding in the absence of test compound. The results are plotted as log % bound versus log concentration of test compound. […] A linear regression line of data points is plotted, from which the IC50 value is determined and the Ki value is determined based upon the following equation: Ki=IC50/(1+L/KD) where L is the concentration of the radioactive ligand used and KD is the dissociation constant of the ligand for the receptor, both expressed in nM.

[1] = membranes of Hela cells expressing human cloned 5-HT6 receptors, [3H]-LSD 3.0 nM, 120 min, room temperature, read-out: 5-HT6 Binding Ki

T1 sequence (P50406 whole entry): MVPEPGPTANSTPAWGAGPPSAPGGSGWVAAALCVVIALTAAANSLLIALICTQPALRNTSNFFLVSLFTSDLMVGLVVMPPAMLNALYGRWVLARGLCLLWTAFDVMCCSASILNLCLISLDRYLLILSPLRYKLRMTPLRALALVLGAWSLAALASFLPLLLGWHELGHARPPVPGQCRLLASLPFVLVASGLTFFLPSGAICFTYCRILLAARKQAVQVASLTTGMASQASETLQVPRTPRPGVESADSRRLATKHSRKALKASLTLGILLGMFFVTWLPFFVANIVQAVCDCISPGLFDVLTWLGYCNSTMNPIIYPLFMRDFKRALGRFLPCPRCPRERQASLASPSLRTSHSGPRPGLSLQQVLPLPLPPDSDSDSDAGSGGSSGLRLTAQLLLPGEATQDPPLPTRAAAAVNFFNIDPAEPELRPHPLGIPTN

Row | Compound | Ki [1] [nM] | Ki [nM]
1 | 2-{[4-(2-chlorophenyl)sulfonyl]-4H-thieno[3,2-b]pyrrol-6-yl}ethylamine [Example 69] | 2.7 ± 0.2 | –
2 | 2-{[4-(3-chlorophenyl)sulfonyl]-4H-thieno[3,2-b]pyrrol-6-yl}ethylamine [Example 65] | 2.7 ± 0.1 | –
3 | 2-{[6-(2,6-dichloroimidazo[2,1-b][1,3]thiazol-5-yl)sulfonyl]-6H-thieno[2,3-b]pyrrol-4-yl}-ethylamine [Example 21] | 21.3 ± 1.5 | –
4 | 2-{[6-(2-chloroimidazo[1,2-a]pyrid-3-yl)sulfonyl]-6H-thieno[2,3-b]pyrrol-4-yl}-ethylamine [Example 20] | 11.3 ± 0.3 | –
5 | 2-{[6-(2-chlorophenyl)sulfonyl]-6H-thieno[2,3-b]pyrrol-4-yl}ethylamine [Example 18] | 13 ± 1.5 | –
6 | 2-{[6-(3-Chlorophenyl)sulfonyl]-6H-thieno[2,3-b]pyrrol-4-yl}ethylamine [Example 10] | 4.3 ± 0.5 | –
7 | 2-{[6-(3-chloro-2-methylphenyl)sulfonyl]-6H-thieno[2,3-b]pyrrol-4-yl}ethylamine [Example 34] | 13.3 ± 1.5 | –
8 | 2-{[6-(4-chlorophenyl)sulfonyl]-6H-thieno[2,3-b]pyrrol-4-yl}ethylamine [Example 22] | 13.3 ± 0.7 | –
9 | 2-{[6-(5-Chlorothien-2-yl)sulfonyl]-6H-thieno[2,3-b]pyrrol-4-yl}ethylamine [Example 11] | 4.9 ± 0.8 | –
10 | 2-{[6-(6-Chloroimidazo[2,1-b][1,3]thiazol-5-yl)sulfonyl]-6H-thieno[2,3-b]pyrrol-4-yl}-ethylamine [Example 12] | 2.1 ± 0.1 | –
11 | NCCc1cn(S(=O)(=O)c2ccccc2)c2sccc12 [Example 8, 2-[6-(phenylsulfonyl)-6H-thieno[2,3-b]pyrrol-4-yl]ethylamine] | – | 7.5 ± 0.9
12 | NCCc1cn(S(=O)(=O)c2cccc(C(F)(F)F)c2)c2sccc12 [Example 9, 2-{[6-(3-trifluoromethyl)phenylsulfonyl]-6H-thieno[2,3-b]pyrrol-4-yl}ethylamine] | 8.9 ± 0.7 | –
13 | NCCc1cn(S(=O)(=O)c2ccc3ccccc3c2)c2sccc12 [Example 13, 2-[6-(2-naphthylsulfonyl)-6H-thieno[2,3-b]pyrrol-4-yl]ethylamine] | 16.7 ± 2.4 | –
14 | COc1cccc(S(=O)(=O)n2cc(CCN)c3ccsc32)c1 [Example 14, 2-{[6-(3-methoxyphenyl)sulfonyl]-6H-thieno[2,3-b]pyrrol-4-yl}ethylamine] | 2.3 ± 0.1 | –
15 | Cc1c(S(=O)(=O)n2cc(CCN)c3ccsc32)sc2ccc(Cl)cc12 [Example 15, 2-{[6-(5-chloro-3-methylbenzo[b]thien-2-yl)sulfonyl]-6H-thieno[2,3-b]pyrrol-4-yl}-ethylamine] | 102 ± 5.7 | –
16 | NCCc1cn(S(=O)(=O)c2ccccc2F)c2sccc12 [Example 16, 2-{[6-(2-fluorophenyl)sulfonyl]-6H-thieno[2,3-b]pyrrol-4-yl}ethylamine] | 12 ± 1.2 | –
17 | NCCc1cn(S(=O)(=O)c2cccc(F)c2)c2sccc12 [Example 17, 2-{[6-(3-fluorophenyl)sulfonyl]-6H-thieno[2,3-b]pyrrol-4-yl}ethylamine] | 9.3 ± 0.7 | –
18 | NCCc1cn(S(=O)(=O)c2cnc3sccn23)c2sccc12 [Example 19, 2-{[6-(imidazo[2,1-b][1,3]thiazol-5-yl)sulfonyl]-6H-thieno[2,3-b]pyrrol-4}ethylamine] | 3.4 ± 0.6 | –
19 | NCCc1cn(S(=O)(=O)c2cccc(Cl)c2Cl)c2sccc12 [Example 23, 2-{[6-(2,3-dichlorophenyl)sulfonyl)-6H-thieno[2,3-b]pyrrol-4-yl}ethylamine] | 7.1 ± 0.2 | –
20 | NCCc1cn(S(=O)(=O)c2cccc(Br)c2)c2sccc12 [Example 24, 2-{[6-(3-bromophenyl)sulfonyl]-6H-thieno[2,3-b]pyrrol-4-yl}ethylamine] | 9 ± 0.5 | –
21 | NCCc1cn(S(=O)(=O)c2ccc(Br)s2)c2sccc12 [Example 25, 2-{[6-(5-bromothien-2-yl)sulfonyl]-6H-thieno[2,3-b]pyrrol-4-yl}ethylamine] | 17.7 ± 3.2 | –

Row | Compound | Ki [1] [nM] | Ki [nM]
22 | NCCc1cn(S(=O)(=O)c2cccs2)c2sccc12 [Example 26] | 20 ± 2 | –
23 | NCCc1cn(S(=O)(=O)c2cc(Cl)c(Cl)s2)c2sccc12 [Example 27, 2-{[6-(4,5-dichlorothien-2-yl)sulfonyl]-6H-thieno[2,3-b]pyrrol-4-yl}ethylamine] | 32.7 ± 4.1 | –
24 | NCCc1cn(S(=O)(=O)c2cccc3ccccc23)c2sccc12 [Example 28, 2-[6-(1-naphthylsulfonyl)-6H-thieno[2,3-b]pyrrol-4-yl]ethylamine] | 9.2 ± 0.8 | –
25 | Cc1cccc(S(=O)(=O)n2cc(CCN)c3ccsc32)c1 [Example 29, 2-{[6-(3-methylphenyl)sulfonyl]-6H-thieno[2,3-b]pyrrol-4-yl}ethylamine] | 7.8 ± 0.4 | –
26 | Cc1nc(S(=O)(=O)n2cc(CCN)c3ccsc32)cn1C [Example 30, 2-{[6-(1,2-dimethyl-1H-imidazol-4-yl)sulfonyl]-6H-thieno[2,3-b]pyrrol-4-yl}ethylamine] | 134 ± 10.3 | –
27 | NCCc1cn(S(=O)(=O)c2cccc3cccnc23)c2sccc12 [Example 31, 2-{[6-(quinolin-8-yl)sulfonyl]-6H-thieno[2,3-b]pyrrol-4-yl}-ethylamine] | 8.6 ± 0.8 | –
28 | NCCc1cn(S(=O)(=O)c2ccccc2C(F)(F)F)c2sccc12 [Example 32, 2-{{[6-(2-trifluoromethyl)phenyl]sulfonyl}-6H-thieno[2,3-b]pyrrol-4-yl}ethylamine] | 21 ± 2.7 | –
29 | COc1ccc(S(=O)(=O)n2cc(CCN)c3ccsc32)cc1 [Example 33, 2-{[6-(4-methoxyphenyl)sulfonyl]-6H-thieno[2,3-b]pyrrol-4-yl}ethylamine] | 24.7 ± 1.7 | –
30 | NCCc1cn(S(=O)(=O)c2ccc(N)cc2)c2sccc12 [Example 35, 2-{[6-(4-aminophenyl)sulfonyl]-6H-thieno[2,3-b]pyrrol-4-yl}ethylamine] | 2.4 ± 0.3 | –
31 | CN(C)CCc1cn(S(=O)(=O)c2ccccc2)c2sccc12 [Example 38, N,N-Dimethyl-2-[6-(phenylsulfonyl)-6H-thieno[2,3-b]pyrrol-4-yl]ethylamine] | 1.2 ± 0.1 | –
32 | CN(C)CCc1cn(S(=O)(=O)c2cccc(C(F)(F)F)c2)c2sccc12 [Example 39, N,N-dimethyl-2-{{[6-(3-trifluoromethyl)phenyl]sulfonyl}-6H-thieno[2,3-b]pyrrol-4-yl}-ethylamine] | 2.3 ± 0.5 | –
33 | COc1cccc(S(=O)(=O)n2cc(CCN(C)C)c3ccsc32)c1 [Example 44] | 0.8 ± 0.1 | –
34 | Cc1c(S(=O)(=O)n2cc(CCN(C)C)c3ccsc32)sc2ccc(Cl)cc12 [Example 45, N,N-dimethyl-2-{[6-(5-chloro-3-methylbenzo[b]thien-2-yl)sulfonyl]-6H-thieno[2,3-b]pyrrol-4-yl}ethylamine] | 20.3 ± 3.4 | –
35 | CN(C)CCc1cn(S(=O)(=O)c2ccccc2F)c2sccc12 [Example 46, N,N-dimethyl-2-{[6-(2-fluorophenyl)sulfonyl]-6H-thieno[2,3-b]pyrrol-4-yl}ethylamine] | 1.8 ± 0.1 | –
36 | CN(C)CCc1cn(S(=O)(=O)c2cccc(F)c2)c2sccc12 [Example 47, N,N-dimethyl-2-{[6-(3-fluorophenyl)sulfonyl]-6H-thieno[2,3-b]pyrrol-4-yl]-ethylamine] | 2.1 ± 0.2 | –
37 | CN(C)CCc1cn(S(=O)(=O)c2cccs2)c2sccc12 [Example 56, N,N-dimethyl-2-{(6-thien-2-ylsulfonyl)-6H-thieno[2,3-b]pyrrol-4-yl]-ethyllamine] | 2.4 ± 0.2 | –
38 | CN(C)CCc1cn(S(=O)(=O)c2cccc3ccccc23)c2sccc12 [Example 58, N,N-dimethyl-2-{[6-(1-naphthyl)sulfonyl]-6H-thieno[2,3-b]pyrrol-4-yl}ethylamine] | 3.6 ± 0.1 | –
39 | Cc1cccc(S(=O)(=O)n2cc(CCN(C)C)c3ccsc32)c1 [Example 59, N,N-dimethyl-2-{[6-(3-methylphenyl)sulfonyl]-6H-thieno[2,3-b]pyrrol-4-yl}ethylamine] | 1.6 | –
40 | Cc1nc(S(=O)(=O)n2cc(CCN(C)C)c3ccsc32)cn1C [Example 60, N,N-dimethyl-2-{[6-(1,2-dimethyl-1H-imidazol-4-yl)sulfonyl]-6H-thieno[2,3-b]pyrrol-4-yl}ethylamine] | 50 ± 1 | –
41 | CN(C)CCc1cn(S(=O)(=O)c2cccc3cccnc23)c2sccc12 [Example 61, N,N-dimethyl-2-{[6-(8-quinolinyl)sulfonyl]-6H-thieno[2,3-b]pyrrol-4-yl}ethylamine] | 4.7 ± 0.1 | –
42 | CN(C)CCc1cn(S(=O)(=O)c2ccccc2C(F)(F)F)c2sccc12 [Example 62, N,N-dimethyl-2-{{[6-(2-trifluoromethyl)phenyl]sulfonyl}-6H-thieno[2,3-b]pyrrol-4-yl}ethylamine] | 4.7 ± 0.1 | –
